Where two headings read alike, the source gives them in different places.
Assays:
[1] = tested on: L. major; parameters: method as in ChEMBL; conditions: ref ChEMBL, cited from earlier work
[2] = tested on: L. major; test: ChEMBL dataset of pIC50 values against L. major used for the RF model (Table S1); assay type: cell-based, Leishmania major; further: call rule not given here
[3] = ChemBL structures with pIC50 values used for Random forest model construction (Table S1)
[4] = Active/Inactive class assigned to ChemBL structures for Random forest model construction (Table S1)
[5] = ChemBL structures with pIC50 values used for Random forest model construction, L. major
[6] = Active/Inactive class assigned to the ChEMBL pIC50 value for Random forest model construction, ref ChEMBL

SMILES	pIC50 Value [1, 3]	Outcome [2, 4]	pIC50 Value [1, 5]	Outcome [2, 6]
O=[N+]([O-])c1ccc2nc(-c3ccc(Cl)cc3)[nH]c2c1 [CHEMBL1407741]	5.63	Active		
CC[C@H](CO)Nc1nc(NCc2ccc(Br)cc2)c2ncn(C(C)C)c2n1 [CHEMBL3423090]			4.71	Inactive
c1ccc(-c2nc3ccccn3c2-c2ccsc2)cc1 [CHEMBL2151872]			4.84	Inactive
COc1ccccc1C(=O)N/N=C/c1ccc(OC)c(O)c1I [CHEMBL2382052]			4.20	Inactive
CSc1ccc(Nc2ncnc3ccc([N+](=O)[O-])cc23)cc1 [CHEMBL3758748]	5.73	Active		
COc1cc(C(=O)/C=C/C2=Cc3cc(Cl)ccc3OC2)cc(OC)c1OC [CHEMBL1094315]	5.69	Active		
CCCCCCNc1ccc(Nc2c3ccc(Cl)cc3nc3ccc(OC)cc23)cc1OC [CHEMBL89400]	6.30	Active		
CC(C)(C)OC(=O)N1CCN(c2cc(-c3ccc(Oc4ccccc4)cc3)n[nH]2)CC1 [CHEMBL394241]			4.89	Inactive
CN(C)c1nccn2c(I)c(-c3ccc(F)cc3)nc12 [CHEMBL3634361]			4.00	Inactive
c1ccc2[nH]c(-c3c[nH]c4ccccc34)nc2c1 [CHEMBL2298015]	5.43	Active		
Cc1ccccc1Cc1nnc2sc(-c3ccc(Cl)cc3)nn12 [CHEMBL1256802]			4.00	Inactive
CCC(C)n1ncn(-c2ccc(N3CCN(c4ccc(OCC5COC(Cn6cncn6)(c6ccc(Cl)cc6Cl)O5)cc4)CC3)cc2)c1=O (stereo not drawn) [CHEMBL64391]	5.70	Active		
COc1ccc(OC)c(Nc2ncnc3ccc([N+](=O)[O-])cc23)c1 [CHEMBL3758611]			4.91	Inactive
CC[C@H](CO)Nc1nc(NCc2cccc(C)c2O)c2ncn(C(C)C)c2n1 [CHEMBL3423079]			4.70	Inactive
COc1cc(OC)c2c(C)[n+](-c3ccc4cc5ccccc5cc4c3)c(C)cc2c1.F[B-](F)(F)F [CHEMBL482393]	6.17	Active		
COc1ccccc1-c1nnc(-c2ccc(C(=O)N/N=C/c3ccc(C)cc3)cc2)o1 [CHEMBL4079056]			4.53	Inactive
ClCCN1c2ccccc2Oc2ccc(Cl)cc21 [CHEMBL3759618]			4.00	Inactive

SMILES	pIC50 Value [1, 3]	Outcome [2, 4]	pIC50 Value [1, 5]	Outcome [2, 6]
Cc1ccccc1Cn1cc(CNc2nnc(-c3ccc([N+](=O)[O-])o3)s2)nn1 [CHEMBL1951528]			4.60	Inactive
CC(C)N1CN(CC(=O)O)CSC1=S [CHEMBL4277354]			3.86	Inactive
O=C(c1ccccc1Cl)N1CCN(c2nnc(-c3ccc([N+](=O)[O-])s3)s2)CC1 [CHEMBL458772]			4.46	Inactive
COc1cc2c(c(OC)c1)C(C)N(c1cccc3ccccc13)C(C)C2 (stereo not drawn) [CHEMBL520770]			4.18	Inactive
CCN(CC)NC(=O)c1ccc(OCc2ccccc2)cc1 [CHEMBL3613383]			4.68	Inactive
COc1ccccc1-c1nnc(-c2ccc(C(=O)N/N=C/c3cccc(O)c3)cc2)o1 [CHEMBL4103014]			4.74	Inactive
CN(C)c1nccn2c(-c3ccncc3)c(-c3ccccc3)nc12 [CHEMBL3634364]			4.50	Inactive
O=[N+]([O-])c1ccc(-c2nnc(NCc3cn(Cc4cccc(Cl)c4Cl)nn3)s2)o1 [CHEMBL1951533]			3.99	Inactive
O=[N+]([O-])c1ccccc1-c1nc2ccccc2[nH]1 [CHEMBL209918]	5.54	Active		
CNc1ccc(Nc2c3ccccc3nc3ccccc23)cc1OC(C)C [CHEMBL439951]	5.89	Active		
O=C(c1ccc(Cl)s1)N1CCN(c2nnc(-c3ccc([N+](=O)[O-])s3)s2)CC1 [CHEMBL464870]			4.62	Inactive
COc1cc2c(c(OC)c1)C(C)N(c1ccc(OC)c3c(OC)cc(C)cc13)[C@H](C)C2 (stereo partly drawn) [CHEMBL479850]			4.18	Inactive
CC(C)c1ccc(-c2nc3cc([N+](=O)[O-])ccc3[nH]2)cc1 [CHEMBL2297904]	5.55	Active		
Cc1cccc2cc(C3CC(c4ccsc4)=NN3)c(Cl)nc12 (stereo not drawn) [CHEMBL2235717]	5.69	Active		
CC(=O)N1c2ccccc2Oc2ccccc21 [CHEMBL2180182]			4.00	Inactive
NP(=O)(OCc1c(F)cc([N+](=O)[O-])cc1F)N(CCCl)CCCl (stereo not drawn) [CHEMBL1257018]	5.89	Active		
